# Experimental data published in patent US20070219180A1, “Muscle Relaxtion Accelerator and Therapeutic Agent for Muscular Tissue Diseases Such as Muscle Relaxation Failure” (priority 2004, published 2007).
# How the values were obtained:
# male Wistar rats = test: Experiment 1: left ventricular end diastolic pressure in rats under calcium chloride and norepinephrine infusion; type: in vivo, rat
# Procedure: In Experiment 1, the hydrochloride of 4-[3-(4-benzylpiperidine-1-yl) propionyl]-7-methoxy-2,3,4,5-tetrahydro-1,4-benzothiazepine, the compound in the invention (hereinafter called the compound), was used as a pharmaceutically acceptable salt of the 1,4-benzothiazepine derivative. Eight-week old male Wistar rats weighing 300-330 g were used in the study. The rats were anesthetized with 1,000 mg/kg of urethane and 80 mg/kg of α-chloralose by subperitoneal injection, and natural respiration was maintained. In this experiment, 100 mg of the compound was dissolved in 1 ml of dimethylsulfoxide (DMSO) and the resulting DMSO solution of the compound was stored at 4° C. Norepinephrine solution was prepared by dissolving 1 mg of norepinephrine in 41 μl of distilled water, at an infusion speed of 40 μg/kg/min.
# Firstly, continuous infusion catheters of calcium chloride solution or norepinephrine solution containing calcium chloride were inserted into the right external jugular veins of the rats, and microchip catheters (SPC-320, Millar) were inserted into the left ventricles via the right common arteries. In addition, test drug infusion catheters were inserted into the right femoral veins.
# A 1-lead electrocardiogram and the left ventricular pressure were recorded simultaneously on a personal computer via an A/D converter. In order to determine the left ventricular end diastolic pressure, a pressure equivalent to the R wave of the electrocardiogram was measured at 20 heart beats every minute, and the mean of the pressure so measured was determined as the left ventricular end diastolic pressure, at the time of measuring. In the preparation step, blood pressure, pulse, and electrocardiogram of the rats were monitored for 15 minutes and allowed to stabilize, and then 5% dextrose solution containing calcium chloride (at a concentration based on the weight of the rat) was infused into the right external jugular vein for 20 minutes at 16.6 μl/min (9.0 mg/kg/min of calcium chloride).
# Secondly, norepinephrine solution containing calcium chloride without changes in dosage was immediately injected at a rate of 40 μg/kg/min via the right external jugular vein. After the start of the administration, calcium chloride and norepinephrine were then continuously injected in the form of a norepinephrine solution containing calcium chloride. With continuous injection of calcium chloride and norepinephrine (in the form of a norepinephrine solution containing calcium chloride) via the right external jugular vein, 0.2 ml of […] was administered over 30 seconds to the first rat (weight: 300 g) as a control via the right femoral vein, 5 minutes after commencement of injection (intravenous injection) of calcium chloride and norepinephrine (in the form of a norepinephrine solution containing calcium chloride) via the right external jugular vein; this rat was defined as Control 1. Similarly to Control 1, with continuous injection of calcium chloride and norepinephrine (in the form of a norepinephrine solution containing calcium chloride) via the right external jugular vein, 0.2 ml of 1% DMSO solution as a solvent control was administered over 30 seconds to a second rat (weight: 310 g) via the right femoral vein, 5 minutes after commencement of injection (intravenous injection) via the right external jugular vein of calcium chloride and norepinephrine (in the form of a norepinephrine solution containing calcium chloride); this rat was defined as Control 2. […]
# white rabbits = test: Experiment 8: inhibition of clofilium-induced torsades de pointes; type: in vivo, rabbit
# Procedure: Inhibition of clofilium-induced torsades de pointes by the compound In this experiment, four white rabbits (weight: 2.8-3.2 kg) were used. Each rabbit was intravenously anesthetized with 5 mg/kg methohexital sodium. Injection catheters for the compound and test drug were inserted into the right external jugular veins of the rabbits, and microchip catheters (SPC-320, Millar) for blood pressure measurement were inserted via the right common arteries, under artificial respiration by endotracheal intubation.
# The compound solution was prepared by dissolving 100 mg of the compound in 1 ml of dimethylsulfoxide (DMSO), and stored at 4° C.
# A 2-lead electrocardiogram and blood pressure of each rabbit were recorded simultaneously on a personal computer via an A/D converter. In this experiment, a sequence of more than 6 polymorphic ventricular tachycardia configurations on the electrocardiogram was defined as torsades de pointes. The number of onsets of torsades de pointes was recorded by electrocardiogram for 30 minutes after administration of clofilium. Methoxamine (an α-stimulant) was used to rapidly induce torsades de pointes. The compound, methoxyamine and clofilium were administered in physiological saline. […]
smiles,measurement,setting,value
"COc1ccc2c(c1)CN(C(=O)CCN1CCC(Cc3ccccc3)CC1)CCS2 [the compound, 4-[3-(4-benzylpiperidine-1-yl)propionyl]-7-methoxy-2,3,4,5-tetrahydro-1,4-benzothiazepine]",Left ventricular diastolic pressure compared with Controls 1 and 2 at the same time point,"male Wistar rats; 15 minutes after commencement of the test drug, Test drugs 1 and 2",less than half those in Controls 1 and 2
same,Left ventricular end diastolic pressure,"male Wistar rats; Test drug 1: 0.3 mg/kg i.v. over 30 s + 0.02 mg/kg/min to 15 min, 0 minutes (just before the start of test drug administration)",8.9 mmHg
same,Left ventricular end diastolic pressure,"male Wistar rats; Test drug 1: 0.3 mg/kg i.v. over 30 s + 0.02 mg/kg/min to 15 min, 5 minutes before test drug (just before the start of norepinephrine), baseline",8.6 mmHg
same,Left ventricular end diastolic pressure,"male Wistar rats; Test drug 1: 0.3 mg/kg i.v. over 30 s + 0.02 mg/kg/min to 15 min, 10 minutes before test drug (15 minutes after the start of CaCl2), baseline",8.5 mmHg
same,Left ventricular end diastolic pressure,"male Wistar rats; Test drug 1: 0.3 mg/kg i.v. over 30 s + 0.02 mg/kg/min to 15 min, 15 minutes before test drug (10 minutes after the start of CaCl2), baseline",8.6 mmHg
same,Left ventricular end diastolic pressure,"male Wistar rats; Test drug 1: 0.3 mg/kg i.v. over 30 s + 0.02 mg/kg/min to 15 min, 20 minutes before test drug (5 minutes after the start of CaCl2), baseline",7.9 mmHg
same,Left ventricular end diastolic pressure,"male Wistar rats; Test drug 1: 0.3 mg/kg i.v. over 30 s + 0.02 mg/kg/min to 15 min, 25 minutes before test drug (just after the start of CaCl2), baseline",7.8 mmHg
same,Left ventricular end diastolic pressure,"male Wistar rats; Test drug 1: 0.3 mg/kg i.v. over 30 s + 0.02 mg/kg/min to 15 min, CaCl2 + norepinephrine infusion, 5 minutes after the start of test drug administration",10.6 mmHg
same,Left ventricular end diastolic pressure,"male Wistar rats; Test drug 1: 0.3 mg/kg i.v. over 30 s + 0.02 mg/kg/min to 15 min, CaCl2 + norepinephrine infusion, 10 minutes after the start of test drug administration",12.5 mmHg
same,Left ventricular end diastolic pressure,"male Wistar rats; Test drug 1: 0.3 mg/kg i.v. over 30 s + 0.02 mg/kg/min to 15 min, CaCl2 + norepinephrine infusion, 15 minutes after the start of test drug administration",11.8 mmHg
same,Left ventricular end diastolic pressure,"male Wistar rats; Test drug 1: 0.3 mg/kg i.v. over 30 s + 0.02 mg/kg/min to 15 min, CaCl2 + norepinephrine infusion, 30 minutes before test drug (5 minutes before the start of CaCl2), baseline",7.5 mmHg
same,Left ventricular end diastolic pressure,"male Wistar rats; Test drug 2: 0.3 mg/kg i.v. over 30 s only, 0 minutes (just before the start of test drug administration)",9.6 mmHg
same,Left ventricular end diastolic pressure,"male Wistar rats; Test drug 2: 0.3 mg/kg i.v. over 30 s only, 5 minutes before test drug (just before the start of norepinephrine), baseline",9.3 mmHg
same,Left ventricular end diastolic pressure,"male Wistar rats; Test drug 2: 0.3 mg/kg i.v. over 30 s only, 10 minutes before test drug (15 minutes after the start of CaCl2), baseline",9.0 mmHg
same,Left ventricular end diastolic pressure,"male Wistar rats; Test drug 2: 0.3 mg/kg i.v. over 30 s only, 15 minutes before test drug (10 minutes after the start of CaCl2), baseline",9.2 mmHg
same,Left ventricular end diastolic pressure,"male Wistar rats; Test drug 2: 0.3 mg/kg i.v. over 30 s only, 20 minutes before test drug (5 minutes after the start of CaCl2), baseline",8.8 mmHg
same,Left ventricular end diastolic pressure,"male Wistar rats; Test drug 2: 0.3 mg/kg i.v. over 30 s only, 25 minutes before test drug (just after the start of CaCl2), baseline",8.6 mmHg
same,Left ventricular end diastolic pressure,"male Wistar rats; Test drug 2: 0.3 mg/kg i.v. over 30 s only, CaCl2 + norepinephrine infusion, 5 minutes after the start of test drug administration",13.8 mmHg
same,Left ventricular end diastolic pressure,"male Wistar rats; Test drug 2: 0.3 mg/kg i.v. over 30 s only, CaCl2 + norepinephrine infusion, 10 minutes after the start of test drug administration",16.4 mmHg
same,Left ventricular end diastolic pressure,"male Wistar rats; Test drug 2: 0.3 mg/kg i.v. over 30 s only, CaCl2 + norepinephrine infusion, 15 minutes after the start of test drug administration",15.3 mmHg
same,Left ventricular end diastolic pressure,"male Wistar rats; Test drug 2: 0.3 mg/kg i.v. over 30 s only, CaCl2 + norepinephrine infusion, 30 minutes before test drug (5 minutes before the start of CaCl2), baseline",8.4 mmHg
same,Onset of torsades de pointes (electrocardiogram),"white rabbits; clofilium 50 μg/kg/min + the compound 0.2 mg/kg/min i.v., monitored 30 minutes",completely prevented
same,Incidence of torsades de pointes,"white rabbits; number of onsets in 30 minutes after start of clofilium 50 μg/kg/min under methoxamine 15 μg/kg/min, the compound 0.2 mg/kg/min i.v. for 30 min",0
